Measured values taken from US20050142574A1, “Mutants of core 2 B-1, 6-N-acetylglycosaminyltransferase” (Seikagaku Corporation and Glycodesign Holdings Ltd., priority 2003, published 2005).
Numbering of substitutions follows the chain as printed. Where two headings read alike, the source gives them in different places.

How the values were obtained:
Assay type in all cases: biochemical
[1] = target: T1, C217S human Core 2 GlcNAcT1 (Homo sapiens, UniProt Q02742, C217S); assay: Kinetic characterization assays (standard enzyme assay with titrated substrate or product); details: for Km: C217S human enzyme; for inhibitory potential of the reaction product, C217S compared with wild-type: human enzymes, titrated product in standard assay
T1 construct: S-tag (N, cleaved yes); made in house
T1 sequence (Q02742 37-428 C217S): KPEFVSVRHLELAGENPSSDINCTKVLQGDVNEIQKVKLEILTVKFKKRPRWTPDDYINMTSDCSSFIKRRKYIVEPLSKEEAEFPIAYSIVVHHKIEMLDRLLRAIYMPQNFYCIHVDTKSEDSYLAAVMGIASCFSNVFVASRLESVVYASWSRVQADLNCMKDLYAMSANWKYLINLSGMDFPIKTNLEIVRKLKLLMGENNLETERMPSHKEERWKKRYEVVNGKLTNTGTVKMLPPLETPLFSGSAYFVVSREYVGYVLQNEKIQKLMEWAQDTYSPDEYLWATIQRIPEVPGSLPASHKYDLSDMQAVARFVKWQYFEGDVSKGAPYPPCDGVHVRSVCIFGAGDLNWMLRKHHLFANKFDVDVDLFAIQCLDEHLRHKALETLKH
Protocol: (§1) Standard enzyme assays for wild-type and mutant (217Cys→Ser) Core 2 GlcNAcT1 were carried out in a 30 μl solution containing 30 mM 2-morpholinoethanesulfonic acid (MES) buffer (pH 6.7), 1.0 mM UDP-GlcNAc (donor substrate), 1.0 μCi UDP-6-[3H]GlcNAc, 0.50 mM (Galβ1-3)GalNAcα-pNp (acceptor substrate or AS), 1 mg/ml BSA, and 15-25 μU (1 unit=1 micromole/min) per assay of recombinant Core 2 GlcNAcT1 protein. The reaction was incubated for 2.0 hours at 37° C. and stopped by the addition of 460 μl of water. Reactions were frozen at −20° C. if they were not processed immediately. The reaction product Galβ1,3 [^3H]GlcNAc(β1,6)GalNAcα-pNp was separated from unreacted UDP-6[^3H]GlcNAc by solid phase extraction using Waters Sep-Pak columns. Samples were eluted from the column with ethanol, added to 10 ml of scintillation fluid and radioactivity (DPM) was determined.
(§2) Km values were determined by running the standard assay conditions with the exception of the titration of the donor substrate UDP-GlcNAc concentration (for Km,DS) or AS concentration (for Km,AS). The IC50 values for the products UDP and GlcNAc(β1-6)Gal(β1-3)GalNAcα-pNp were determined by running the standard assay conditions and adding titrated product. The mechanism was determined by titrating both donor and acceptor substrates at the same time.

[2] = target: T2, wild-type human Core 2 GlcNAcT1 (Homo sapiens, UniProt Q02742, I152V); assay: as above
T2 construct: S-tag (N, cleaved yes); made in house
T2 sequence (Q02742 37-428 I152V): T1 sequence (Q02742 37-428 C217S) with I116V, S181C
Protocol: as §1, §2

[3] = target: T3, C217S mouse Core 2 GlcNAcT1 (Mus musculus, UniProt Q09324, C217S); assay: as above; details: for inhibitory potential of the reaction product, C217S compared with wild-type: mouse enzymes, titrated product in standard assay
T3 construct: made in house; host or cells: CHO-S or COS-7 cells, secreted, purified on anti-FLAG M1 beads
T3 sequence (Q09324 with tags, fused parts or gaps R88W/S191T/C217S/T260A/H362D/H420R): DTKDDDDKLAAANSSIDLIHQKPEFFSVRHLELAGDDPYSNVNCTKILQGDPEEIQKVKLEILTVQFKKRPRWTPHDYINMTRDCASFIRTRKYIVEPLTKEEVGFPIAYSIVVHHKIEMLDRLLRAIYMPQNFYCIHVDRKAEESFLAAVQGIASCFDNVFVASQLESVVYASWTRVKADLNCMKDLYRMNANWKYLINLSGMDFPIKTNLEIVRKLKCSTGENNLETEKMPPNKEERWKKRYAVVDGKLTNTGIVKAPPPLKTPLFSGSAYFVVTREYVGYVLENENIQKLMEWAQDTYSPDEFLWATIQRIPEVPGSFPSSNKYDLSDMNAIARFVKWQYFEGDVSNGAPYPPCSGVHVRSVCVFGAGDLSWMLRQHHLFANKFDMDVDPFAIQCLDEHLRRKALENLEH
Protocol: as §1, §2

[4] = target: T4, wild-type mouse Core 2 GlcNAcT1 (Mus musculus, UniProt Q09324, H362D/H420R/R88W/S191T/T260A); assay: as above
T4 construct: made in house; host or cells: COS-7 or CHO-S cells, secreted into the culture supernatant, purified on anti-FLAG M1 beads
T4 sequence (Q09324 34-428 R88W/S191T/T260A/H362D/H420R): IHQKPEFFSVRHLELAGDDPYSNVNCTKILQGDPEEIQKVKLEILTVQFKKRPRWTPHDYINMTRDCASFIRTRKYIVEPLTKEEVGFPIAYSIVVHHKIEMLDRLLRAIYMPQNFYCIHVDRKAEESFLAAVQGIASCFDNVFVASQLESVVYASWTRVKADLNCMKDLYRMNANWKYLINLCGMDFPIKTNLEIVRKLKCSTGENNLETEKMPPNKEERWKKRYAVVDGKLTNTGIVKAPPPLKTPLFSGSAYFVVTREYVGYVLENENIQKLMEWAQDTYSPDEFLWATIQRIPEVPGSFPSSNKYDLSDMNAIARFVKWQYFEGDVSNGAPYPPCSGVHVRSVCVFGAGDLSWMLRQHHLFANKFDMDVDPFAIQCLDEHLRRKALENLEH
Protocol: as §1, §2

[5] = target: T1, C217S human Core 2 GlcNAcT1; assay: Effects of sulfhydryl reagents and heavy metals on enzyme activity (% activity); details: relatively high concentrations (FIG. 2), 37° C., 2.0 hours
Protocol: (§3) Wild-type and C217S, human and mouse, Core 2 GlcNAcT1s were dissolved in an aqueous solution containing 30 mM 2-morpholinoethanesulfonic acid (MES) buffer (pH 6.7) and 1.0 mg/ml bovine serum albumin (BSA). Iodoacetamide (IAA), 5,5′-dithiobis(2-nitrobenzoic acid) (DTNB), N-ethylmaleimide (NEM), HgCl2 and ZnSO4 were added at the concentrations listed on FIGS. 1 and 2. 1.0 mM UDP-GlcNAc, 0.50 mM Gal(β1-3)GalNAcα-pnp, (3H)UDP-GlcNAc (0.50 μCi) and 30 mM MES buffer (pH 6.7) were added as well. The solutions were incubated at 37° C. for 2.0 hours. The (^3H)UDP-GlcNAc and (^3H)GlcNAc(β1-6)Gal(β1-3)GalNAcα-pnp were separated by solid-phase extraction and the DPM of (^3H)Gal(β1-3) GlcNAc(β1-6)GalNAcα-pnp were counted by liquid scintillation. A solution containing all components with exception of enzymes was prepared to measure background levels. The % activity was calculated as follows: (DPMinhibitor−DPMbackground)/(DPMcontrol−DPMbackground)*100. All assays were performed in duplicate. The results are plotted in FIGS. 1 and 2.

[6] = target: T2, wild-type human Core 2 GlcNAcT1; assay: as above; details: 37° C., 2.0 hours, concentrations listed on FIG. 2
Protocol: as §3

[7] = target: T5, wild-type mouse Core 2 GlcNAcT1 (Mus musculus, UniProt Q09324); assay: as above; details: 37° C., 2.0 hours, concentrations listed on FIG. 1
T5 construct: made in house; host or cells: COS-7 or CHO-S cells, secreted into the culture supernatant, purified on anti-FLAG M1 beads
T5 sequence (Q09324 34-428 R88W/S191T/T260A/H362D/H420R): T4 sequence (Q09324 34-428 R88W/S191T/T260A/H362D/H420R)
Protocol: as §3

[8] = target: T3, C217S mouse Core 2 GlcNAcT1; assay: as above; details: relatively high concentrations (FIG. 1), 37° C., 2.0 hours
Protocol: as §3

[9] = target: T5, wild-type mouse Core 2 GlcNAcT1; assay: Kinetic characterization assays (standard enzyme assay with titrated substrate or product); details: Ordered Bi Bi mechanism, read-out: KD for the donor substrate
Protocol: as §1, §2

[10] = target: T2, wild-type human Core 2 GlcNAcT1; assay: Activity of stored recombinant enzyme after addition of reducing agents; details: following storage of expressed and purified recombinant enzyme
From the text: (§4) Iodoacetamide, 5,5′-dithiobis(2-nitrobenzoic acid) (DTNB), and N-ethylmaleimide causes inhibition of wild-type human and mouse Core 2 GlcNAcT1s. […] The blocking of this residue by oxidation, alkylation, or heavy metal binding causes inhibition of the enzyme.

[11] = target: T4, wild-type mouse Core 2 GlcNAcT1; assay: as above; details: following storage of expressed and purified recombinant enzyme
From the text: as §4

[12] = acceptor substrate titrated, read-out: Km value for the acceptor substrate
[13] = donor substrate titrated, read-out: Km value for the donor substrate

Row | Compound | inhibition of enzyme activity [5] | inhibition of enzyme activity [6] | inhibition of enzyme activity [7] | inhibition of enzyme activity [8] | other results
1 | CC(=O)N[C@H]1[C@@H](Oc2ccc([N+](=O)[O-])cc2)O[C@H](CO)[C@H](O)[C@@H]1O[C@@H]1O[C@H](CO)[C@H](O)[C@H](O)[C@H]1O [Gal(β1-3)GalNAcα-pNp] |  |  |  |  | Km [1, 12]: 320 µM; Km [2, 12]: 340 µM; Km ([3]; C217S mouse enzyme, acceptor substrate titrated, read-out: Km value for the acceptor substrate): 130 µM; Km [4, 12]: 150 µM
2 | O=c1ccn([C@@H]2O[C@H](COP(=O)(O)OP(=O)(O)O)[C@@H](O)[C@H]2O)c(=O)[nH]1 [UDP] |  |  |  |  | inhibitory potential of the reaction product, C217S compared with wild-type [1]: the same for both enzymes; inhibitory potential of the reaction product, C217S compared with wild-type [3]: the same for both enzymes
3 | CC(=O)N[C@H]1[C@H](OC[C@H]2O[C@H](Oc3ccc([N+](=O)[O-])cc3)[C@H](NC(C)=O)[C@@H](O[C@@H]3O[C@H](CO)[C@H](O)[C@H](O)[C@H]3O)[C@H]2O)O[C@H](CO)[C@@H](O)[C@@H]1O [Gal(β1-3) GlcNAc(β1-6)GalNAcα-pNp] |  |  |  |  | inhibitory potential of the reaction product, C217S compared with wild-type [1]: the same for both enzymes; inhibitory potential of the reaction product, C217S compared with wild-type [3]: the same for both enzymes
4 | NC(=O)CI [Iodoacetamide] | not inhibited | inhibition | inhibition | not inhibited | 
5 | O=C(O)c1cc(SSc2ccc([N+](=O)[O-])c(C(=O)O)c2)ccc1[N+](=O)[O-] [DTNB, 5,5′-dithiobis(2-nitrobenzoic acid)] | not inhibited | inhibition | inhibition | not inhibited | 
6 | CCN1C(=O)C=CC1=O [N-ethylmaleimide] | not inhibited | inhibition | inhibition | not inhibited | 
7 | uridine diphospho-N-acetylglucosamine [UDP-GlcNAc] |  |  |  |  | Km [1, 13]: 1100 µM; Km [2, 13]: 1200 µM; Kd [9]: 110 µM; Kd ([3]; C217S mouse enzyme, Ordered Bi Bi mechanism, read-out: KD for the donor substrate): 110 µM; Km ([3]; C217S mouse enzyme, donor substrate titrated, read-out: Km value for the donor substrate): 1500 µM; Km [4, 13]: 1500 µM
8 | [Cl][Hg][Cl] [Hg^2+, HgCl2] | insensitive | inhibit | inhibit | did not affect | 
9 | O[C@@H](CS)[C@@H](O)CS (racemic) [DTT, 1,4-dithiothreitol] |  |  |  |  | change of enzyme activity after addition of reducing agent [10]: increase; change of enzyme activity after addition of reducing agent [11]: increase
10 | O=S(=O)([O-])[O-].[Zn+2] [Zn^2+, ZnSO4] | insensitive to Hg^2+ only | inhibit | inhibit | did not affect | 
